Legend:
[1] = Toxicity in athymic nude BALB/c mouse xenografted with human MDA-MB-231 cells assessed as effect on AST level in serum at 3 mg/kg, ip administered 5 times a week for 7 weeks; type: organism-based; details: in vivo, 1176 h
[2] = Effect on HDAC5 protein expression in human NCI-H1975 cells assessed as fold change at 0.05 uM incubated for 24 hrs by immunoblotting analysis (reference value: 1); type: functional
[3] = Toxicity in athymic nude BALB/c mouse xenografted with human MDA-MB-231 cells assessed as effect on BUN level in serum at 3 mg/kg, ip administered 5 times a week for 7 weeks; type: organism-based; details: in vivo, 1176 h
[4] = Toxicity in athymic nude BALB/c mouse xenografted with human NCI-H1975 cells assessed as reduction in body weight at 6 mg/kg, ip administered 5 times a week for 3 weeks and measured on day 22; type: organism-based; details: in vivo, 528 h, time 22 day
[5] = Upregulation of acetylated H4 protein expression in human MDA-MB-231 cells assessed as fold change at 0.05 uM incubated for 24 hrs by immunoblotting analysis (reference value: 1); type: functional
[6] = Effect on HDAC5 protein expression in human MDA-MB-231 cells assessed as fold change at 0.05 uM incubated for 24 hrs by immunoblotting analysis (reference value: 1); type: functional
[7] = target: T1, Protein deacetylase HDAC6 (Homo sapiens, UniProt Q9UBN7); experiment: Inhibition of recombinant human HDAC6 using acetylated luminogenic substrate incubated for 10 mins by ultra-glo recombinant firefly luciferase based luminescence assay
T1 sequence (Q9UBN7 whole entry): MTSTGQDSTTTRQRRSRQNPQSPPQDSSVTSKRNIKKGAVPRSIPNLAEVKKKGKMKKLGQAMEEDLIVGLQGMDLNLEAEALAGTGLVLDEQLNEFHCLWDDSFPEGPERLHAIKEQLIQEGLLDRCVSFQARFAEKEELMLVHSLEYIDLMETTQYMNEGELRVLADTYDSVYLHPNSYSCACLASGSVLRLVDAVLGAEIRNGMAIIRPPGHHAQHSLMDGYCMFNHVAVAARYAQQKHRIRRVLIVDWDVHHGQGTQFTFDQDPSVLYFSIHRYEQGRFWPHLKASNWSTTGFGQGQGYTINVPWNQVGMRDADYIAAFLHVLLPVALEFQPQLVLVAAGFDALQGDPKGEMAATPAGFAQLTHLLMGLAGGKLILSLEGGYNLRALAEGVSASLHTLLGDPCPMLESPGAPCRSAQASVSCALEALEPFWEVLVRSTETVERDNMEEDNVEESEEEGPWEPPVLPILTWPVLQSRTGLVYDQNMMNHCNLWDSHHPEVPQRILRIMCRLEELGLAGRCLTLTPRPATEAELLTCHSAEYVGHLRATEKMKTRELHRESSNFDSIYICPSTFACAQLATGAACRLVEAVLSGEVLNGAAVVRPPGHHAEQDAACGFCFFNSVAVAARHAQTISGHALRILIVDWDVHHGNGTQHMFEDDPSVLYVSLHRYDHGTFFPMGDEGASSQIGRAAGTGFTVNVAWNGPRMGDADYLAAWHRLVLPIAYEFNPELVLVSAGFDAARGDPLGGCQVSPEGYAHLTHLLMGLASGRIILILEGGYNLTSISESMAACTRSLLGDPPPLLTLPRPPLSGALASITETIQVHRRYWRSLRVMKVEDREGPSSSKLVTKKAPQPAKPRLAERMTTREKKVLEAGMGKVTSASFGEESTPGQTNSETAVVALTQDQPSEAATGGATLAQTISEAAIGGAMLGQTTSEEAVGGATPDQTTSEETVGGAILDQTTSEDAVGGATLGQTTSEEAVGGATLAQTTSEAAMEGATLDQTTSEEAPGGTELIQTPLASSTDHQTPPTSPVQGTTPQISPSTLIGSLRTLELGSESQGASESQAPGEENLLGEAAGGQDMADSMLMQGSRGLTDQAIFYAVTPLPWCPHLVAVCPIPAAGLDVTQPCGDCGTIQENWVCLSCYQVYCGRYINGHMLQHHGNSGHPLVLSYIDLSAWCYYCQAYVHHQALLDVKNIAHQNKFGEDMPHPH

[8] = Upregulation of acetylated H3 protein expression in human NCI-H1975 cells assessed as fold change at 0.1 uM incubated for 24 hrs by immunoblotting analysis (reference value: 1); type: functional
[9] = target: T2, Polyamine deacetylase HDAC10 (Homo sapiens, UniProt Q969S8); experiment: Inhibition of recombinant human HDAC10 using acetylated luminogenic substrate incubated for 10 mins by ultra-glo recombinant firefly luciferase based luminescence assay
T2 sequence (Q969S8 whole entry): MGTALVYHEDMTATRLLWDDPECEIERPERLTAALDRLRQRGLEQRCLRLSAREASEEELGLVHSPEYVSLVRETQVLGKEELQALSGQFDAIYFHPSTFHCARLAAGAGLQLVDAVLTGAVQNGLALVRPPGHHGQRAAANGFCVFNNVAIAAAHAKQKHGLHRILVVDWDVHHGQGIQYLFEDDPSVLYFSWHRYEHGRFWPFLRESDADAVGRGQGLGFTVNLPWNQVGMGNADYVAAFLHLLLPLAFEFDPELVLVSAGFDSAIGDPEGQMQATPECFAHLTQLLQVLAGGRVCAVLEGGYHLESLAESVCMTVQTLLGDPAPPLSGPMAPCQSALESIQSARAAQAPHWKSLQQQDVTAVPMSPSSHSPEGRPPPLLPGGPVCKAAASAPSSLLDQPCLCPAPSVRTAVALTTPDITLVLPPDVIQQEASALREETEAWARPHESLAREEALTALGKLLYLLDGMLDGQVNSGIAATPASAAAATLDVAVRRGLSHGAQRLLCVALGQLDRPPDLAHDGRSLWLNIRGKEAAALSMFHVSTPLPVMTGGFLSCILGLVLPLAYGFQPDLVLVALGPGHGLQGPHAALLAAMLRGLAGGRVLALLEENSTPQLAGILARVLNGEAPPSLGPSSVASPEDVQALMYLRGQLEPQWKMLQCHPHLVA

[10] = Effect on HDAC9 protein expression in human MDA-MB-231 cells assessed as fold change at 0.05 uM incubated for 24 hrs by immunoblotting analysis (reference value: 1); type: functional
Histone deacetylase 2 = Histone deacetylase 2 (Homo sapiens, UniProt Q92769); experiment: Inhibition of recombinant human HDAC2 using acetylated luminogenic substrate incubated for 10 mins by ultra-glo recombinant firefly luciferase based luminescence assay
Sequence of Histone deacetylase 2 (Q92769 whole entry): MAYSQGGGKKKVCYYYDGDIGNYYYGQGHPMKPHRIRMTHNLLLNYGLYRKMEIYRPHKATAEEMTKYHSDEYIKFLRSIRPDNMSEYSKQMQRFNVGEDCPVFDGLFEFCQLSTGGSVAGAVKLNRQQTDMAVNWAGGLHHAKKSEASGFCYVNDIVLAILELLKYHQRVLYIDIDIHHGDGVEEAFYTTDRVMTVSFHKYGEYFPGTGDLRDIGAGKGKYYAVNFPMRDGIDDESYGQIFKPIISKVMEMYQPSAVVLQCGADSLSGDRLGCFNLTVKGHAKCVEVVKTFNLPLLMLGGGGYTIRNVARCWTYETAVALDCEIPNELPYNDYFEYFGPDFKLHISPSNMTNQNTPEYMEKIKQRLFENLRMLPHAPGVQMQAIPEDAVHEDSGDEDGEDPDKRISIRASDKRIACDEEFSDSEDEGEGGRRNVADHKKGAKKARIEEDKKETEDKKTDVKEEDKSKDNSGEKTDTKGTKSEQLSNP

[11] = Downregulation of HDAC3 protein expression in human MDA-MB-231 cells assessed as fold change at 0.05 uM incubated for 24 hrs by immunoblotting analysis (reference value: 1); type: functional
[12] = Downregulation of HDAC9 protein expression in human NCI-H1975 cells assessed as fold change at 0.05 uM incubated for 24 hrs by immunoblotting analysis (reference value: 1); type: functional
[13] = Downregulation of HDAC4 protein expression in human NCI-H1975 cells assessed as fold change at 0.1 uM incubated for 24 hrs by immunoblotting analysis (reference value: 1); type: functional

CCOc1ccc(-c2nc(C(=O)NCc3ccc(C(=O)NO)cc3)c3[nH]c(=O)n(-c4cccnc4OC)c3n2)cn1
Activity [1]: Non-Toxic | fold change (FC) [2]: 2.38 | Activity [3]: Non-Toxic | Activity [4]: Non-Toxic | fold change (FC) [5]: 1.74 | fold change (FC) [6]: 1.16 | IC50 [7]: 10.8 nM | fold change (FC) [8]: 2.19 | IC50 [9]: 18.9 nM | fold change (FC) [10]: 1.08 | IC50 (Histone deacetylase 2): 11.5 nM | fold change (FC) [11]: 0.82 | fold change (FC) [12]: 0.5 | fold change (FC) [13]: 0.6
